Test results as given in patent US9988381B2, “Five-member-heterocycle fused pyridine compounds, method of producing the same, and use thereof” (SHANGHAI INSTITUTE OF MATERIA MEDICA, CHINESE ACADEMY OF …, priority 2013, dated 2018).
Like-named read-outs stand apart in the source and are kept apart here.

Columns and labels:
[1] = molecular target: T1, c-Met kinase domain recombinant protein (Homo sapiens, UniProt P08581); experiment: biochemical; settings: for inhibition at 0.1 µM: read-out: Average inhibition rate at 0.1 μM (%); for inhibition at 1 µM: read-out: Average inhibition rate at 1 μM (%); for inhibition at 10 µM: read-out: Average inhibition rate at 10 μM (%)
T1 construct: 50 μL diluted solution of c-Met kinase domain recombinant protein in reaction buffer was added to initiate the reaction
Method: (§1) Enzymatic reaction substrate Poly(Glu,Tyr)4:1 was diluted to 20 μg/mL in potassium ion free PBS (10 mM sodium phosphate buffer, 150 mM NaCl, pH7.2-7.4), microplate was coated with this solution at 125 μL per well, and reacted at 37° C. for 12-16 hours. Liquid in wells was discarded, then the plate was washed 3 times for 5 minutes each with 200 μL per well of T-PBS (PBS containing 0.1% Tween-20).
Into each well was added 50 μL diluted ATP solution in reaction buffer (50 mM HEPES pH 7.4, 50 mM MgCl2, 0.5 mM MnCl2, 0.2 mM Na3VO4, 1 mM DTT), the final concentration was 5 μM. Test compound was diluted in DMSO to proper concentration, added at 1 μL per well or corresponding level of DMSO (negative control wells), then 49 μL diluted solution of c-Met kinase domain recombinant protein in reaction buffer was added to initiate the reaction, each test was setup with two wells of ATP free control. Reaction was performed in a 37° C. shaker (100 rpm) for 1 hour. The plate was washed three times with T-PBS. Primary antibody PY99 diluted solution was added at 100 μL per well, incubated in a 37° C. shaker for 0.5 hour.
The plate was washed three times with T-PBS. Goat anti mouse secondary antibody labeled with horseradish peroxidase was added at 100 μL per well, incubated in a 37° C. shaker for 0.5 hour. The plate was washed three times with T-PBS. […] Reaction was terminated by adding 50 μL per well of 2M H2SO4, the plate was read at 490 nm using a SPECTRA MAX 190 microplate reader with tunable wavelength.
(§2) Inhibition rate of the sample was calculated using the following equation: […]
IC50 was calculated by fitting the data for a four parameter fit using inhibition curve.

[2] = molecular target: T1, c-Met kinase domain recombinant protein; experiment: biochemical; settings: read-out: Inhibition rate at 10 μM (%)
Method: as §1, with “discarded. Plate washing:” for “discarded, then”, “(potassium ion free PBS” for “(PBS”
Into each well was added 49 μL diluted ATP solution in reaction buffer (50 mM HEPES pH 7.4, 50 mM MgCl2, 0.5 mM MnCl2, 0.2 mM Na3VO4, 1 mM DTT), and 1 μL per well of compound to be tested was added, then 50 μL diluted solution of c-Met kinase domain recombinant protein in reaction buffer was added to initiate the reaction, each test was setup with two wells of ATP free control. Reaction was performed in a 37° C. shaker (100 rpm) for 1 hour. Liquid in the wells was discarded, and the plate was washed three times with T-PBS.
Antibody PY99 was added at 100 μL per well (the antibody was 1:500 diluted in T-PBS containing 5 mg/mL BSA), incubated in a 37° C. shaker for 0.5 hour. Liquid in the wells was discarded, and the plate was washed three times with T-PBS.
Goat anti mouse secondary antibody labeled with horseradish peroxidase was added at 100 μL per well (the antibody was 1:2000 diluted in T-PBS containing 5 mg/mL BSA), incubated in a 37° C. shaker for 0.5 hour. Liquid in the wells was discarded, and the plate was washed three times with T-PBS.
Reaction was terminated by adding 50 μL per well of 2M H2SO4, the plate was read at 490 nm using a VERSAmax microplate reader with tunable wavelength.
as §2

T1 sequence (P08581 1078-1345 limits assumed): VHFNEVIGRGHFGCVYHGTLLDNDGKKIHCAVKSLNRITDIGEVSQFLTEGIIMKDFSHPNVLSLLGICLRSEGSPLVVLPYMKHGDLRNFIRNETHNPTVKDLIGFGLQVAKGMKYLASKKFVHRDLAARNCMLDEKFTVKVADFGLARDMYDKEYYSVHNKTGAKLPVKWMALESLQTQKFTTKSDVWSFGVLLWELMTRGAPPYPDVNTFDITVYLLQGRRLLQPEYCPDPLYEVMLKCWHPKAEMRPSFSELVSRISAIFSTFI

SMILES	inhibition at 0.1 µM [1]	inhibition at 1 µM [1]	inhibition at 10 µM [1]	inhibition at 10 µM [2]	IC50 [1]
Cn1cc(-c2cnc3cnn(S(=O)(=O)c4ccccc4C#N)c3c2)cn1 [Compound 8, 1-(2-cyanobenzenesulfonyl)-6-[(1-methyl)-4-pyrazolyl]-1-H-pyrazolo[4,3-b]pyridine]	9.2%	51.6%	72.4%	72.4%	
Cn1cc(-c2cnc3cnn(S(=O)(=O)c4ccc([N+](=O)[O-])cc4)c3c2)cn1 [Compound 9, 1-(4-nitrobenzenesulfonyl)-6-[(1-methyl)-4-pyrazolyl]-1-H-pyrazolo[4,3-b]pyridine]			22%	22%	
COc1ccc(S(=O)(=O)n2ncc3ncc(-c4cnn(C)c4)cc32)cc1OC [Compound 10, 1-(3,4-dimethoxybenzenesulfonyl)-6-[(1-methyl)-4-pyrazolyl]-1-H-pyrazolo[4,3-b]pyridine]			37.9%	37.9%	
Cc1noc(C)c1S(=O)(=O)n1ncc2ncc(-c3cnn(C)c3)cc21 [Compound 11, 1-(3,5-dimethylisoxazolesulfonyl)-6-[(1-methyl)-4-pyrazolyl]-1-H-pyrazolo[4,3-b]pyridine]			48.6%	48.6%	
Cn1cc(-c2cnc3cnn(S(=O)(=O)c4ccc(F)cc4F)c3c2)cn1 [Compound 12, 1-(2,4-difluorobenzenesulfonyl)-6-[(1-methyl)-4-pyrazolyl]-1-H-pyrazolo[4,3-b]pyridine]			37.5%	37.5%	
CC(=O)c1ccc(S(=O)(=O)n2ncc3ncc(-c4cnn(C)c4)cc32)cc1 [Compound 13, 1-(4-acetylbenzenesulfonyl)-6-[(1-methyl)-4-pyrazolyl]-1-H-pyrazolo[4,3-b]pyridine]	28.5%	45.3%	52.6%	52.6%	
Cn1cc(-c2cnc3cnn(S(=O)(=O)c4ccccc4C(F)(F)F)c3c2)cn1 [Compound 14, 1-(2-trifluoromethylbenzenesulfonyl)-6-[(1-methyl)-4-pyrazolyl]-1-H-pyrazolo[4,3-b]pyridine]	39.9%	54.7%	74.3%	74.3%	
Cn1cc(-c2cnc3cnn(S(=O)(=O)c4ccc(C(F)(F)F)cc4)c3c2)cn1 [Compound 15, 1-(4-trifluoromethylbenzenesulfonyl)-6-[(1-methyl)-4-pyrazolyl]-1-H-pyrazolo[4,3-b]pyridine]			40.6%	40.6%	
Cn1cc(-c2cnc3cnn(S(=O)(=O)c4cccc(C(F)(F)F)c4)c3c2)cn1 [Compound 16, 1-(3-trifluoromethylbenzenesulfonyl)-6-[(1-methyl)-4-pyrazolyl]-1-H-pyrazolo[4,3-b]pyridine]	25.2%	56.1%	73.2%	73.2%	
COc1ccc(S(=O)(=O)n2ncc3ncc(-c4cnn(C)c4)cc32)cc1 [Compound 17, 1-(4-methoxybenzenesulfonyl)-6-[(1-methyl)-4-pyrazolyl]-1-H-pyrazolo[4,3-b]pyridine]			49.9%	49.9%	
Cn1cc(-c2cnc3cnn(S(=O)(=O)c4cnn5cccnc45)c3c2)cn1 [Example 22, 1-(pyrazolo[1,5-a]pyrimidine-3-sulfonyl)-6-[(1-methyl)-4-pyrazolyl]-1-H-pyrazolo[4,3-b]pyridine]	24.9%	58.7%	69.5%	69.5%	39.7 ± 6.3 nM
Cn1cc(-c2cnc3cnn(S(=O)(=O)c4cnc5ncccn45)c3c2)cn1 [Example 23, 1-(imidazo[1,2-a]pyrimidine-3-sulfonyl)-6-[(1-methyl)-4-pyrazolyl]-1-H-pyrazolo[4,3-b]pyridine]	26.9%	52.7%	65.1%	65.1%	3.7 ± 1.4 nM
Cn1cc(-c2cnc3cnn(S(=O)(=O)c4cnc5ccc(C(F)(F)F)cn45)c3c2)cn1 [Example 26, 1-[(6-trifluoromethyl-imidazo[1,2-a]pyridine)-3-sulfonyl]-6-[(1-methyl)-4-pyrazolyl]-1-H-pyrazolo[4,3-b]pyridine]	60%	63.8%	65.2%	65.2%	33.9 ± 6.9 nM
O=S(=O)(c1cnc2ccccn12)n1ncc2ncc(-c3cccnc3)cc21 [Example 30, 1-(imidazo[1,2-a]pyridine-3-sulfonyl)-6-(3-pyridinyl)-1-H-pyrazolo[4,3-b]pyridine]	48.3%	59.7%	71%	71%	
O=S(=O)(c1cnc2ccccn12)n1ncc2ncc(-c3ccoc3)cc21 [Example 31, 1-(imidazo[1,2-a]pyridine-3-sulfonyl)-6-(3-furanyl)-1-H-pyrazolo[4,3-b]pyridine]	59%	64.1%	69%	69%	
O=S(=O)(c1cnc2ccccn12)n1ncc2ncc(-c3ccc(C(F)(F)F)cc3)cc21 [Example 32, 1-(imidazo[1,2-a]pyridine-3-sulfonyl)-6-(4-trifluoromethylphenyl)-1-H-pyrazolo[4,3-b]pyridine]	52.9%	52%	64.2%	64.2%	
O=S(=O)(c1cnc2ccccn12)n1ncc2ncc(-c3ccc4ccccc4c3)cc21 [Example 33, 1-(imidazo[1,2-a]pyridine-3-sulfonyl)-6-(2-naphthyl)-1-H-pyrazolo[4,3-b]pyridine]	39.9%	47.3%	53.7%	53.7%	
CS(=O)(=O)Nc1ccc(-c2cnc3cnn(S(=O)(=O)c4cnc5ccccn45)c3c2)cc1 [Example 34, 1-(imidazo[1,2-a]pyridine-3-sulfonyl)-6-(4-methylsulfamidophenyl)-1-H-pyrazolo[4,3-b]pyridine]	31.3%	49.3%	61.3%	61.3%	
CC(C)(C)OC(=O)N1CC=C(c2cnc3cnn(S(=O)(=O)c4cnc5ccccn45)c3c2)CC1 [Example 35, 1-(imidazo[1,2-a]pyridine-3-sulfonyl)-6-[(1-t-butoxycarbonyl)-4-(1,2,3,6-tetrahydropyridinyl)]-1-H-pyrazolo[4,3-b]pyridine]	51.1%	53.2%	62.5%	62.5%	
O=S(=O)(c1cnc2ccccn12)n1ncc2ncc(-c3ccc4c(c3)OCCO4)cc21 [Example 36, 1-(imidazo[1,2-a]pyridine-3-sulfonyl)-6-[6-(1,4-benzodioxanyl)]-1-H-pyrazolo[4,3-b]pyridine]	45.6%	60%	66.3%	66.3%	
O=S(=O)(c1cnc2ccccn12)n1ncc2ncc(-c3ccc(CN4CCOCC4)cc3)cc21 [Example 38, 1-(imidazo[1,2-a]pyridine-3-sulfonyl)-6-(4-morpholinomethylphenyl)-1-H-pyrazolo[4,3-b]pyridine]	63.2%	63.9%	87.1%	87.1%	
CC(=O)c1ccc(-c2cnc3cnn(S(=O)(=O)c4cnc5ccccn45)c3c2)cc1 [Example 40, 1-(imidazo[1,2-a]pyridine-3-sulfonyl)-6-(4-acetylphenyl)-1-H-pyrazolo[4,3-b]pyridine]	45.7%	57.4%	66%	66%	
